Where two headings read alike, the source gives them in different places.
Tested on: Guinea-pig ileum muscle
Experiment: Antispasmodic activity: reduction of the acetylcholine contraction of isolated ileum in a gut bath
Assay type: cell-based
Procedure: Antispasmodic activity was determined using standard methodology. (d) Guinea-pig ileum muscle was suspended in a gut bath, in oxygenated Tyrode's solution at 37°. Doses of acetylcholine were added to the gut bath fluid, the contraction recorded, and the bath washed out with fresh Tyrode's solution. This was carried out repeatedly to establish a dose of acetylcholine to cause a sub-maximal response. This dose of acetylcholine was used repeatedly, on a 2 minute cycle to establish steady responses. Doses of antispasmodic were then added 30 seconds before the acetylcholine dose to establish the magnitude of reduction of the acetylcholine contraction.

CN1C2CCC1CC(OC(=O)C(CO)c1ccccc1)C2 (racemic) [atropine sulphate, reference compound]
equivalent amount for antispasmodic activity: 0.06 ng

CCN(CCCc1ccccc1)CCCc1ccc(O)cc1 [compound (II), N-ethyl, N-(3-phenylpropyl), 3-(4-hydroxyphenyl)-propylamine]
equivalent amount for antispasmodic activity (equi-active amounts of the amine hydrochloride and atropine sulphate, acetylcholine contraction, oxygenated Tyrode's solution at 37°): 1.5 ng
antispasmodic activity times less than the standard (relative to atropine sulphate as standard, acetylcholine contraction, oxygenated Tyrode's solution at 37°, antispasmodic added 30 seconds before the acetylcholine dose): approximately 25 times

Reference: patent EP0542837B1, “PROPYLAMINE DERIVATIVES” (NORGINE LIMITED, priority 1990, dated 1992)
